One block for each compound: values may come before it.
Tested on: 885512-296-R-J2-PDC complex spheroid viability
Assay: Anticancer human tumor 885512-296-R-J2-PDC patient-derived breast carcinoma cell line growth inhibition [GQUAD]
Conditions: for IC50: curve of first compound; for viability, T/C: stronger effect = lower value
How it was run: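 Multi-cell-type spheroids of tumor cells with HUVEC and mesenchymal stem cells, treated with drug combinations. Concentrations descend in half-log steps from near clinical Cmax, or from 10 microM where Cmax is unknown; viability read-out.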

[1] = second compound 0.0316 µM, first compound 0.0316 µM
[2] = second compound 0.0316 µM, first compound 0.1 µM
[3] = second compound 0.0316 µM, first compound 0.316 µM
[4] = second compound 0.0316 µM, first compound 1 µM
[5] = second compound 0.0316 µM, first compound 3.16 µM
[6] = second compound 0.0316 µM, first compound 10 µM
[7] = second compound 0.1 µM, first compound 0.0316 µM
[8] = second compound 0.1 µM, first compound 0.1 µM
[9] = second compound 0.1 µM, first compound 0.316 µM
[10] = second compound 0.1 µM, first compound 1 µM
[11] = second compound 0.1 µM, first compound 3.16 µM
[12] = second compound 0.1 µM, first compound 10 µM
[13] = second compound 0.316 µM, first compound 0.0316 µM
[14] = second compound 0.316 µM, first compound 0.1 µM
[15] = second compound 0.316 µM, first compound 0.316 µM
[16] = second compound 0.316 µM, first compound 1 µM
[17] = second compound 0.316 µM, first compound 3.16 µM
[18] = second compound 0.316 µM, first compound 10 µM
[19] = second compound 1 µM, first compound 0.0316 µM
[20] = second compound 1 µM, first compound 0.1 µM
[21] = second compound 1 µM, first compound 0.316 µM
[22] = second compound 1 µM, first compound 1 µM
[23] = second compound 1 µM, first compound 3.16 µM
[24] = second compound 1 µM, first compound 10 µM
[25] = second compound 3.16 µM, first compound 0.0316 µM
[26] = second compound 3.16 µM, first compound 0.1 µM
[27] = second compound 3.16 µM, first compound 0.316 µM
[28] = second compound 3.16 µM, first compound 1 µM
[29] = second compound 3.16 µM, first compound 3.16 µM
[30] = second compound 3.16 µM, first compound 10 µM
[31] = second compound 10 µM, first compound 0.0316 µM
[32] = second compound 10 µM, first compound 0.1 µM
[33] = second compound 10 µM, first compound 0.316 µM
[34] = second compound 10 µM, first compound 1 µM
[35] = second compound 10 µM, first compound 3.16 µM
[36] = second compound 10 µM, first compound 10 µM
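Further: spheroids exposed to the compounds for one week.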
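Wherever viability, T/C is given: percent of tumor spheroid viability relative to DMSO vehicle control wells.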

SMILES: CC1COCCN1c1cc(C2(S(C)(=N)=O)CC2)nc(-c2ccnc3[nH]ccc23)n1 (stereo unspecified) + Cc1[nH]c2ccc(F)cc2c1-c1nc2c3cccnc3c3ncccc3c2[nH]1
IC50 (second compound 0.0316 µM): 838 nM
IC50 (second compound 0.1 µM): 868 nM
IC50 (second compound 0.316 µM): 555 nM
IC50 (second compound 1 µM): 147 nM
IC50 (second compound 3.16 µM): < 31.6 nM
IC50 (second compound 10 µM): < 31.6 nM
viability, T/C [1]: 103%
viability, T/C [2]: 105%
viability, T/C [3]: 85.6%
viability, T/C [4]: 44.9%
viability, T/C [5]: 7.65%
viability, T/C [6]: 5.02%
viability, T/C [7]: 125%
viability, T/C [8]: 108%
viability, T/C [9]: 92.1%
viability, T/C [10]: 46.1%
viability, T/C [11]: 6.65%
viability, T/C [12]: 3.91%
viability, T/C [13]: 102%
viability, T/C [14]: 94.2%
viability, T/C [15]: 72%
viability, T/C [16]: 28%
viability, T/C [17]: 4.02%
viability, T/C [18]: 4.62%
viability, T/C [19]: 80.4%
viability, T/C [20]: 55.6%
viability, T/C [21]: 37%
viability, T/C [22]: 5.55%
viability, T/C [23]: 3.67%
viability, T/C [24]: 3.74%
viability, T/C [25]: 10.4%
viability, T/C [26]: 5.19%
viability, T/C [27]: 3.19%
viability, T/C [28]: 1.97%
viability, T/C [29]: 1.51%
viability, T/C [30]: 1.38%
viability, T/C [31]: 1.16%
viability, T/C [32]: 1.65%
viability, T/C [33]: 1.5%
viability, T/C [34]: 1.57%
viability, T/C [35]: 1.94%
viability, T/C [36]: 1.43%

IC50 (second compound 0.0316 µM): > 10000 nM
IC50 (second compound 0.1 µM): > 10000 nM
IC50 (second compound 0.316 µM): < 31.6 nM
IC50 (second compound 1 µM): < 31.6 nM
IC50 (second compound 3.16 µM): < 31.6 nM
IC50 (second compound 10 µM): < 31.6 nM
SMILES: C=CC(=O)N1CCN(c2nc(=O)n(-c3c(C)ccnc3C(C)C)c3nc(-c4c(O)cccc4F)c(F)cc23)C(C)C1 (stereo unspecified) + Cc1cnc(CNC(=O)c2c(=O)c3ccc(N4CCCN(C)CC4)nc3n3c2sc2ccccc23)cn1
viability, T/C [1]: 90.5%
viability, T/C [2]: 81.3%
viability, T/C [3]: 107%
viability, T/C [4]: 105%
viability, T/C [5]: 99.1%
viability, T/C [6]: 76.9%
viability, T/C [7]: 60.9%
viability, T/C [8]: 66%
viability, T/C [9]: 68.5%
viability, T/C [10]: 67.5%
viability, T/C [11]: 79.5%
viability, T/C [12]: 47.3%
viability, T/C [13]: 35.9%
viability, T/C [14]: 29.3%
viability, T/C [15]: 33.8%
viability, T/C [16]: 31.1%
viability, T/C [17]: 33.6%
viability, T/C [18]: 24%
viability, T/C [19]: 23.4%
viability, T/C [20]: 30.9%
viability, T/C [21]: 33.2%
viability, T/C [22]: 24.1%
viability, T/C [23]: 22.6%
viability, T/C [24]: 28.3%
viability, T/C [25]: 34.5%
viability, T/C [26]: 31.4%
viability, T/C [27]: 19.4%
viability, T/C [28]: 27%
viability, T/C [29]: 29.8%
viability, T/C [30]: 32.3%
viability, T/C [31]: 0.14%
viability, T/C [32]: 0.2%
viability, T/C [33]: 0.24%
viability, T/C [34]: 0.2%
viability, T/C [35]: 0.2%
viability, T/C [36]: 1.55%

SMILES: CC(=O)O[C@H]1C(=O)[C@@]2(C)[C@H]([C@H](OC(=O)c3ccccc3)[C@]3(O)C[C@H](OC(=O)[C@H](O)[C@@H](NC(=O)c4ccccc4)c4ccccc4)C(C)=C1C3(C)C)[C@]1(OC(C)=O)CO[C@@H]1C[C@@H]2O + CN(C)c1ccc(Nc2c3ccc(NC(=O)CCN4CCCC4)cc3nc3cc(NC(=O)CCN4CCCC4)ccc23)cc1
IC50 (second compound 0.0316 µM): < 31.6 nM
IC50 (second compound 0.1 µM): < 31.6 nM
IC50 (second compound 0.316 µM): < 31.6 nM
IC50 (second compound 1 µM): < 31.6 nM
IC50 (second compound 3.16 µM): < 31.6 nM
IC50 (second compound 10 µM): < 31.6 nM
viability, T/C [1]: 7.7%
viability, T/C [2]: 3.78%
viability, T/C [3]: 3.71%
viability, T/C [4]: 2.86%
viability, T/C [5]: 3.18%
viability, T/C [6]: 3.65%
viability, T/C [7]: 6.67%
viability, T/C [8]: 3.1%
viability, T/C [9]: 3.16%
viability, T/C [10]: 4.15%
viability, T/C [11]: 3.73%
viability, T/C [12]: 3.82%
viability, T/C [13]: 8.31%
viability, T/C [14]: 4.86%
viability, T/C [15]: 3.98%
viability, T/C [16]: 3.68%
viability, T/C [17]: 3.77%
viability, T/C [18]: 3.72%
viability, T/C [19]: 10.4%
viability, T/C [20]: 4.09%
viability, T/C [21]: 3.56%
viability, T/C [22]: 3.3%
viability, T/C [23]: 3.31%
viability, T/C [24]: 3.95%
viability, T/C [25]: 5.71%
viability, T/C [26]: 3.67%
viability, T/C [27]: 3.71%
viability, T/C [28]: 3.88%
viability, T/C [29]: 5.32%
viability, T/C [30]: 5.08%
viability, T/C [31]: 6.02%
viability, T/C [32]: 4.19%
viability, T/C [33]: 2.67%
viability, T/C [34]: 4.93%
viability, T/C [35]: 3.01%
viability, T/C [36]: 3.27%
